US20140135270A1, “MACROCYCLIC COMPOUNDS FOR INHIBITION OF INHIBITORS OF APOPTOSIS” (Ensemble Therapeutics Corp., priority 2012, published 2014)

Tests used:
His-BIR3 (241-356, XIAP) = biological target: T1, His-BIR3 (241-356, XIAP) (Homo sapiens, UniProt P98170); assay: XIAP-BIR3/SMAC Homogeneous Time Resolved Fluorescence (HTRF) Assay; assay type: binding; settings: fluorescein labeled SMAC peptide
T1 construct: additions of His-BIR3 (241-356, XIAP), fluorescein labeled SMAC peptide

[1] = biological target: T2, His-BIR2-3 (125-356, C202A/C213G, XIAP) (Homo sapiens, UniProt P98170, C202A/C213G); assay: XIAP-BIR2-3 Dimeric SMAC Peptide Homogeneous Time Resolved Fluorescence (HTRF) Assay; assay type: binding; settings: fluorescein labeled dimeric SMAC peptide
T2 construct: additions of His-BIR2-3 (125-356, C202A/C213G, XIAP), fluorescein labeled dimeric SMAC peptide
T2 sequence (P98170 125-356 C202A/C213G): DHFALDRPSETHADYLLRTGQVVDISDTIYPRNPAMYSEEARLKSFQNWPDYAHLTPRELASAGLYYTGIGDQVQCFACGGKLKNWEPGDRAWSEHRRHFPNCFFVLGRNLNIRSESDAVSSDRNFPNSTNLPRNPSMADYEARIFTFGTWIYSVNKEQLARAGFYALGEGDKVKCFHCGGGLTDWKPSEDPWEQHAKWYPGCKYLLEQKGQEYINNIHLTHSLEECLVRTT

T1 sequence (P98170 241-356): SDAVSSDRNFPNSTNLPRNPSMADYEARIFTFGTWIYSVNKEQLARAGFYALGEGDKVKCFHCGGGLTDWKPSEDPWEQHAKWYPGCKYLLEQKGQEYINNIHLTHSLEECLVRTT

| IC50 (His-BIR3 (241-356, XIAP)) | IC50 [1] | Structure (SMILES) |
| --- | --- | --- |
| 6.1 nM | 1 nM | CN[C@@H](C)C(=O)N[C@H](C(=O)N1C[C@@H]2C[C@H]1C(=O)NC(Cc1ccc3ccccc3c1)C(=O)N[C@H](C(=O)NS(=O)(=O)CCCO)Cc1ccc(cc1)OCCCC[C@H]1C[C@@H](C(=O)N[C@@H](Cc3ccc4ccccc4c3)C(=O)N[C@H](C(=O)O)Cc3ccc(cc3)OCc3cn2nn3)N(C(=O)[C@@H](NC(=O)[C@H](C)NC)C(C)(C)C)C1)C(C)(C)C (stereo partly drawn) [Example 101] |
| 0.7 nM | 0.2 nM | CN[C@@H](C)C(=O)N[C@H](C(=O)N1C[C@H]2C/C=C/COc3ccc(cc3)C[C@@H](C(=O)NS(=O)(=O)C3CCCCC3)NC(=O)[C@H](Cc3ccc4ccccc4c3)NC(=O)[C@@H]3C[C@@H](CN3C(=O)[C@@H](NC(=O)[C@H](C)NC)C(C)(C)C)n3cc(nn3)COc3ccc(cc3)C[C@@H](C(=O)O)NC(=O)[C@H](Cc3ccc4ccccc4c3)NC(=O)[C@@H]1C2)C(C)(C)C [Example 24] |
| 26.1 nM | 1.7 nM | CC[C@H](NC(=O)[C@H](C)NC)C(=O)N1C[C@@H]2C[C@H]1C(=O)N[C@@H](Cc1ccc3ccccc3c1)C(=O)N[C@H](C(=O)NS(=O)(=O)C1CC1)Cc1ccc(cc1)OCc1cn(nn1)[C@H]1C[C@@H](C(=O)N[C@@H](Cc3ccc4ccccc4c3)C(=O)N[C@H](C(=O)O)Cc3ccc(cc3)OC/C=C/CO2)N(C(=O)[C@@H](NC(=O)[C@H](C)NC)C(C)(C)C)C1 [Example 107] |
| 16.4 nM | 3.2 nM | CN[C@@H](C)C(=O)N[C@@H](CC1CCCCC1)C(=O)N1C[C@@H]2C[C@H]1C(=O)N[C@@H](Cc1ccc3ccccc3c1)C(=O)N[C@H](C(=O)O)Cc1ccc(cc1)C(=O)N[C@H]1C[C@@H](C(=O)N[C@@H](Cc3ccc4ccccc4c3)C(=O)N[C@H](C(=O)O)Cc3ccc(cc3)OC/C=C/CO2)N(C(=O)[C@@H](NC(=O)[C@H](C)NC)C(C)(C)C)C1 [Example 69] |
| 18.1 nM | 11.1 nM | CN[C@@H](C)C(=O)N[C@H](C(=O)N1C[C@@H]2C[C@H]1C(=O)N[C@@H](Cc1ccc3ccccc3c1)C(=O)N[C@H](C(=O)O)Cc1ccc(cc1)OC/C=C/CO[C@H]1C[C@@H](C(=O)N[C@@H](Cc3ccc(-c4cccc(F)c4)cc3)C(=O)N[C@H](C(=O)NS(=O)(=O)C3CC3)Cc3ccc(cc3)OCc3cn2nn3)N(C(=O)[C@@H](NC(=O)[C@H](C)NC)C(C)(C)C)C1)C(C)(C)C [Example 115] |
| 17.9 nM | 1.7 nM | CN[C@@H](C)C(=O)N[C@H](C(=O)N1C[C@@H]2C[C@H]1C(=O)N[C@@H](Cc1ccc3ccccc3c1)C(=O)N[C@H](C(=O)O)Cc1ccc(cc1)OC/C=C/CO[C@H]1C[C@@H](C(=O)N[C@@H](Cc3ccc(-c4ccccc4)cc3)C(=O)N[C@H](C(=O)NS(=O)(=O)C3CC3)Cc3ccc(cc3)OCc3cn2nn3)N(C(=O)[C@@H](NC(=O)[C@H](C)NC)C(C)(C)C)C1)C(C)(C)C [Example 106] |
| 3.1 nM | 1.8 nM | CN[C@@H](C)C(=O)N[C@H](C(=O)N1C[C@@H]2C[C@H]1C(=O)NC(Cc1ccc3ccccc3c1)C(=O)N[C@H](c1n[nH]c(=O)n1Cc1ccc(OC)cc1)Cc1ccc(cc1)OC/C=C/C[C@H]1C[C@@H](C(=O)N[C@@H](Cc3ccc4ccccc4c3)C(=O)N[C@H](C(=O)O)Cc3ccc(cc3)OCc3cn2nn3)N(C(=O)[C@@H](NC(=O)[C@H](C)NC)C(C)(C)C)C1)C(C)(C)C (stereo partly drawn) [Example 95] |
| 5.4 nM | 12.4 nM | CN[C@@H](C)C(=O)N[C@H](C(=O)N1CCC2[C@H]1C(=O)N[C@@H](Cc1ccc3ccccc3c1)C(=O)N[C@H](C(=O)O)Cc1ccc(cc1)OC/C=C/CO[C@H]1C[C@@H](C(=O)N[C@@H](Cc3ccc4ccccc4c3)C(=O)N[C@H](C(=O)O)Cc3ccc(cc3)OCc3cn2nn3)N(C(=O)[C@@H](NC(=O)[C@H](C)NC)C(C)(C)C)C1)C(C)(C)C (stereo partly drawn) [Example 13] |
| 7.1 nM | 1 nM | CN[C@@H](C)C(=O)N[C@H](C(=O)N1C[C@@H]2C[C@H]1C(=O)NC(Cc1ccc3ccccc3c1)C(=O)N[C@H](C(=O)O)CCCCOC/C=C/C[C@H]1C[C@@H](C(=O)N[C@@H](Cc3ccc4ccccc4c3)C(=O)N[C@H](C(=O)O)Cc3ccc(cc3)OCc3cn2nn3)N(C(=O)[C@@H](NC(=O)[C@H](C)NC)C(C)(C)C)C1)C(C)(C)C (stereo partly drawn) [Example 96] |
| 2.9 nM | 1.3 nM | CN[C@@H](C)C(=O)N[C@H](C(=O)N1C[C@@H]2C[C@H]1C(=O)N[C@@H](Cc1ccc3ccccc3c1)C(=O)NC(C(=O)O)Cc1ccc(cc1)OC/C=C/CO[C@H]1C[C@@H](C(=O)N[C@@H](Cc3ccc4ccccc4c3)C(=O)N[C@H](C(=O)O)Cc3ccc(cc3)O2)N(C(=O)[C@@H](NC(=O)[C@H](C)NC)C(C)(C)C)C1)C(C)(C)C (stereo partly drawn) [Example 84] |
| 2.4 nM | 1.3 nM | CN[C@@H](C)C(=O)N[C@H](C(=O)N1C[C@@H]2C[C@H]1C(=O)N[C@@H](Cc1ccc3ccccc3c1)C(=O)N[C@H](C(=O)O)Cc1ccc(cc1)OCCCC[C@H]1C[C@@H](C(=O)N[C@@H](Cc3ccc4ccccc4c3)C(=O)N[C@H](C(=O)NS(=O)(=O)C3CC3)Cc3ccc(cc3)OCc3cn2nn3)N(C(=O)[C@@H](NC(=O)[C@H](C)NC)C(C)(C)C)C1)C(C)(C)C [Example 87] |

Continued, compound first:

| Structure (SMILES) | IC50 (His-BIR3 (241-356, XIAP)) | IC50 [1] |
| --- | --- | --- |
| CN[C@@H](C)C(=O)N[C@H](C(=O)N1C[C@@H]2C[C@H]1C(=O)N[C@@H](Cc1ccc3ccccc3c1)C(=O)N[C@H](C(=O)O)CCC(=O)N[C@H]1C[C@@H](C(=O)N[C@@H](Cc3ccc4ccccc4c3)C(=O)N[C@H](C(=O)O)Cc3ccc(cc3)OC/C=C/CO2)N(C(=O)[C@@H](NC(=O)[C@H](C)NC)C(C)(C)C)C1)C(C)C [Example 56] | 57.9 nM | 5.9 nM |
| CN[C@@H](C)C(=O)N[C@@H](Cc1ccccc1)C(=O)N1C[C@@H]2C[C@H]1C(=O)N[C@@H](Cc1ccc3ccccc3c1)C(=O)N[C@H](C(=O)O)CCC(=O)N[C@H]1C[C@@H](C(=O)N[C@@H](Cc3ccc4ccccc4c3)C(=O)N[C@H](C(=O)O)Cc3ccc(cc3)OC/C=C/CO2)N(C(=O)[C@@H](NC(=O)[C@H](C)NC)C(C)(C)C)C1 [Example 60] | 79.5 nM | 9.2 nM |
| CNC(C)C(=O)NC(C(=O)N1CC2CC1C(=O)NC(Cc1ccc3ccccc3c1)C(=O)NC(C(=O)O)Cc1ccc(cc1)OCCCCC1CC(C(=O)NC(Cc3ccc4ccccc4c3)C(=O)NC(C(=O)NS(=O)(=O)C(C)C)Cc3ccc(cc3)OCc3cn2nn3)N(C(=O)C(NC(=O)C(C)NC)C(C)(C)C)C1)C(C)(C)C (stereo not drawn) [Example 10] | 6.6 nM | 3.1 nM |
| CN[C@@H](C)C(=O)N[C@H](C(=O)N[C@H]1C/C=C/COc2ccc(cc2)C[C@H](C(=O)O)NC(=O)[C@H](Cc2ccc3ccccc3c2)NC(=O)[C@@H]2[C@@H](CCN2C(=O)[C@@H](NC(=O)[C@H](C)NC)C(C)(C)C)OCc2cn(nn2)CC[C@@H](C(=O)OC)NC(=O)[C@H](Cc2ccc3ccccc3c2)NC1=O)C(C)(C)C [Example 21] | 1.8 nM | 2.6 nM |
| CN[C@@H](C)C(=O)N[C@H](C(=O)N1C[C@@H]2C[C@H]1C(=O)N[C@@H](Cc1ccc3ccccc3c1)C(=O)N[C@H](C(=O)O)Cc1ccc(cc1)OCc1cn(nn1)[C@H]1C[C@@H](C(=O)N[C@@H](Cc3ccc4ccccc4c3)C(=O)N[C@H](C(=O)O)Cc3ccc(cc3)OCCCCO2)N(C(=O)[C@@H](NC(=O)[C@H](C)NC)C(C)(C)C)C1)C(C)(C)C [Example 121] | 11.6 nM | 7.9 nM |
| CN[C@@H](C)C(=O)N[C@H](C(=O)N1CC[C@H]2OC/C=C/COc3ccc(cc3)C[C@@H](C(=O)O)NC(=O)[C@H](Cc3ccc4ccccc4c3)NC(=O)[C@@H]3[C@@H](CCN3C(=O)[C@@H](NC(=O)[C@H](C)NC)C(C)(C)C)OCc3cn(nn3)[C@H](C(=O)O)CCNC(=O)[C@H](Cc3ccc4ccccc4c3)NC(=O)[C@H]21)C(C)(C)C [Example 14] | 17 nM | 3.7 nM |
| CC[C@H](NC(=O)[C@H](C)NC)C(=O)N1C[C@@H]2C[C@H]1C(=O)N[C@@H](C)C(=O)N[C@H](C(=O)O)Cc1ccc(cc1)C(=O)N[C@H]1C[C@@H](C(=O)N[C@@H](Cc3ccc4ccccc4c3)C(=O)N[C@H](C(=O)O)Cc3ccc(cc3)OC/C=C/CO2)N(C(=O)[C@@H](NC(=O)[C@H](C)NC)C(C)(C)C)C1 [Example 45] | 106 nM | 7.9 nM |
| CN[C@@H](C)C(=O)N[C@@H](C)C(=O)N1C[C@@H]2C[C@H]1C(=O)N[C@@H](Cc1ccc3ccccc3c1)C(=O)N[C@H](C(=O)O)CCC(=O)N[C@H]1C[C@@H](C(=O)N[C@@H](Cc3ccc4ccccc4c3)C(=O)N[C@H](C(=O)O)Cc3ccc(cc3)OC/C=C/CO2)N(C(=O)[C@@H](NC(=O)[C@H](C)NC)C(C)(C)C)C1 [Example 55] | 252 nM | 108 nM |
| CN[C@@H](C)C(=O)N[C@H](C(=O)N[C@H]1C/C=C/COc2ccc(cc2)C[C@@H](C(=O)O)NC(=O)[C@H](Cc2ccc3ccccc3c2)NC(=O)[C@@H]2CN(CCN2C(=O)[C@@H](NC(=O)[C@H](C)NC)C(C)(C)C)C(=O)CNC(=O)CC[C@@H](C(=O)O)NC(=O)[C@H](Cc2ccc3ccccc3c2)NC1=O)C(C)(C)C [Example 78] | 82.4 nM | 4.7 nM |
| CN[C@@H](C)C(=O)N[C@H](C(=O)N1CC[C@H]2OCc3cn(nn3)CC[C@@H](C(=O)OC)NC(=O)[C@H](Cc3ccc4ccccc4c3)NC(=O)[C@@H]3[C@@H](CCN3C(=O)[C@@H](NC(=O)[C@H](C)NC)C(C)(C)C)OC/C=C/COc3ccc(cc3)C[C@@H](C(=O)O)NC(=O)[C@H](Cc3ccc4ccccc4c3)NC(=O)[C@H]21)C(C)(C)C [Example 17] | 1.8 nM | 1.8 nM |
